Reference: paper PMC5548696 (Bioorganic & medicinal chemistry letters, 2017)
pIC50: −log10 of the molar value.

Legend:
[1] = test system: H+/K+ ATPase; conditions: cited from earlier work
[2] = target: human ENGase; conditions: read-out: IC50, human ENGase inhibitors; earlier reports; cited from earlier work
[3] = target: T1, Recombinant human ENGase (Homo sapiens, UniProt Q8NFI3); format: biochemical; conditions: 100 μM drug concentration; first round, 13 drugs
T1 sequence (Q8NFI3 1-743): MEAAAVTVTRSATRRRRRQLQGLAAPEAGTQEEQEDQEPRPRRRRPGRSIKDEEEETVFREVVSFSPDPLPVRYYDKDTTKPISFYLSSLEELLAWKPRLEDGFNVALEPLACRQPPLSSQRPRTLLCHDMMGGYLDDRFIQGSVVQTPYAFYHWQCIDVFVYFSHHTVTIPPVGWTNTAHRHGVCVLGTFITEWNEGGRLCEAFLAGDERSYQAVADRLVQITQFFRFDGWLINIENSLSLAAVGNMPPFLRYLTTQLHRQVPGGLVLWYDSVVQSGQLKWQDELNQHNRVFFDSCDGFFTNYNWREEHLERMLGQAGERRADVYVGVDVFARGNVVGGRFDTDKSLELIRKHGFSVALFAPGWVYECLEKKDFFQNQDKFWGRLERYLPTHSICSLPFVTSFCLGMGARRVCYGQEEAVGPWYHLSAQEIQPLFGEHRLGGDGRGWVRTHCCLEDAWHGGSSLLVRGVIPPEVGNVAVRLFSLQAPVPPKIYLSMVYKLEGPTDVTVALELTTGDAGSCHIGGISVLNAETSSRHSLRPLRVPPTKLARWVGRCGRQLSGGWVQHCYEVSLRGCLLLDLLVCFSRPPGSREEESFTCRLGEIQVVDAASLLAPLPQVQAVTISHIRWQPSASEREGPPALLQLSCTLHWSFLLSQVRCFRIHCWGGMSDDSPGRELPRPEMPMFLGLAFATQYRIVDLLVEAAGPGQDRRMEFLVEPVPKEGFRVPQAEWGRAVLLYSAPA

COCCCOc1ccnc(C[S+]([O-])c2nc3ccccc3[nH]2)c1C (stereo not drawn) [Rabeprazole]
target affinity [1]: ~ 70 nM

Man9GlcNAc-thiazoline
pIC50 [2]: 6.38

Cc1c(OCC(F)(F)F)ccnc1C[S+]([O-])c1nc2ccccc2[nH]1 (stereo not drawn) [Lansoprazole]
inhibition of ENGase enzyme activity, preliminary ENGase inhibitor screening [3]: inhibited ENGase enzyme activity
